In the NIST ThermoML archive (doi:10.1016/j.jct.2018.03.031):
Where “and” joins values, the source holds several entries; their conditions need not be identical. Equal values may be shown once.

Legend:
[1] = DSC
[2] = Molar enthalpy of transition or fusion; settings: DSC
[3] = molar heat capacity at constant pressure; settings: 101.33 kPa, Large sample (1 g) DSC

CCCC[P+](CCCC)(CCCC)CCCC.FC(F)(F)C(F)(F)[P-](F)(F)(F)(C(F)(F)C(F)(F)F)C(F)(F)C(F)(F)F
Settings	Molar enthalpy of transition or fusion, [2]	Triple point temperature, [1]
Crystal 1	7.8 kJ/mol	342.15 K
Crystal 2	8.9 kJ/mol and 8.7 kJ/mol	313.75 K and 313.15 K

molar heat capacity at constant pressure [J/K/mol], [3]
Settings	283.15 K	288.15 K	293.15 K	298.15 K	303.15 K	323.15 K	328.15 K
Crystal 1	–	–	–	–	–	1029.4	1049.8
Crystal 2	971	981.2	990.3	1003.2	1018.4	–	–

CCn1cc[n+](C)c1.O=S(=O)([N-]S(=O)(=O)C(F)(F)F)C(F)(F)F
[3], Liquid
Settings	molar heat capacity at constant pressure [J/K/mol]
283.15 K	521
288.15 K	522.6
293.15 K	524.2
298.15 K	526.4
303.15 K	528.5
308.15 K	530.7
313.15 K	532.5
318.15 K	534.8
323.15 K	536.3
328.15 K	538.9
333.15 K	540.2
338.15 K	541.7

COCC[N+]1(C)CCCC1.O=S(=O)([N-]S(=O)(=O)C(F)(F)F)C(F)(F)F
[3], Liquid
Settings	molar heat capacity at constant pressure [J/K/mol]
283.15 K	575.3
288.15 K	578.9
293.15 K	580.3
298.15 K	582.3
303.15 K	584.7
308.15 K	586.5
313.15 K	588.9
318.15 K	591.3
323.15 K	593.2
328.15 K	596.3
333.15 K	597.5
338.15 K	602.6

CCCC[N+]1(C)CCCC1.O=S(=O)([O-])C(F)(F)F [1-butyl-1-methylpyrrolidinium trifluoromethanesulfonate]
[3], Liquid
Settings	molar heat capacity at constant pressure [J/K/mol]
283.15 K	436.5
288.15 K	438.3
293.15 K	439.9
298.15 K	442.7
303.15 K	445.3
308.15 K	447.8
313.15 K	452.2
318.15 K	455.3
323.15 K	457.2
328.15 K	460
333.15 K	461.9
338.15 K	464.6

CCCCn1cc[n+](C)c1C.O=S(=O)([O-])C(F)(F)F [1-butyl-2,3-dimethylimidazolium trifluoromethanesulfonate]
Settings	Molar enthalpy of transition or fusion, [2]	Triple point temperature, [1]
Crystal 1	15 kJ/mol	315.25 K and 316.15 K
Crystal 2	5.4 kJ/mol and 7.1 kJ/mol	307.45 K and 306.15 K

molar heat capacity at constant pressure [J/K/mol], [3]
Settings	283.15 K	288.15 K	293.15 K	323.15 K	328.15 K	333.15 K	338.15 K
Crystal 2	381.1	394.6	407.1	–	–	–	–
Liquid	–	–	–	472.2	474.3	475.2	478.7

CCCCCCOS(=O)(=O)[O-].CC[n+]1ccn(C)c1 [3-ethyl-1-methyl-1H-imidazolium hexyl sulfate]
[3], Liquid
Settings	molar heat capacity at constant pressure [J/K/mol]
283.15 K	505.2
288.15 K	508.3
293.15 K	509.1
298.15 K	513.9
303.15 K	517.4
308.15 K	520.2
313.15 K	523.1
318.15 K	526
323.15 K	528.4
328.15 K	531.5
333.15 K	534
338.15 K	537.6

CCCCO [butan-1-ol]
[3], Liquid
Settings	molar heat capacity at constant pressure [J/K/mol]
283.15 K	168
288.15 K	171
293.15 K	174.1
298.15 K	177.9
303.15 K	181.1
308.15 K	184.5
313.15 K	187.8
318.15 K	191.4
323.15 K	196
328.15 K	200.1
333.15 K	204.1
338.15 K	208.4
